According to publication PMC10470178, “Long-acting lenacapavir protects macaques against intravenous challenge with simian-tropic HIV” (eBioMedicine, 2023):
Where two headings read alike, the source gives them in different places.

Test: Pharmacokinetics of subcutaneous LEN in pigtail macaques
Type: in vivo, pigtail macaques (Macaca nemestrina)
Details: for range of peak plasma LEN concentration after second dose / mean peak plasma LEN concentration after first dose / range of peak plasma LEN concentration after first dose: N = 3; for time mean plasma drug concentrations above the PA-EC95: two doses 6 weeks apart; for half-life: sc
Method: Sixteen male, purpose-bred pigtail macaques (Macaca nemestrina; ages 4.6–8.5 years at the time of study initiation) were housed at NIH-Bethesda (Supplementary Table S1). All study animals received enrofloxacin (10 mg/kg, administered orally, once per day for 10 days), paromomycin (25 mg/kg, administered orally, twice daily for 7–10 days), and fenbendazole (50 mg/kg administered orally, once per day for 5 days) two weeks to 43 months prior to study initiation. Lenacapavir or drug vehicle (sterile, preservative-free 57.5% w/v polyethylene glycol 300 in water) doses were administered to sedated animals via SC injection into the scapular region such that no more than 2 ml of solution was injected into a single SC site. Animals in the LEN pharmacokinetic evaluation study (N = 6) each received two doses of LEN, both at 15 mg/kg (N = 3) or at 50 mg/kg (N = 3), 6 weeks apart. Animals in the virus challenge experiment each received a single dose of LEN at 25 mg/kg (N = 3, LEN PrEP group) or drug vehicle (N = 4, vehicle control group) 30 days prior to stHIV-A19 challenge, or a cART regimen consisting of tenofovir disoproxil fumarate (TDF), emtricitabine (FTC), and dolutegravir (DTG) (N = 3, TDF/FTC/DTG group), coformulated and administered as previously described[29]^,[30] for 7 days beginning 3 days prior to stHIV-A19 challenge (Supplementary Figure S1). Hair was clipped and skin marked at LEN and vehicle injection sites to allow for subsequent visual and manual assessment and scoring of potential ISRs by non-blinded veterinary care staff. Complete blood counts (CBC) and serum chemistries were monitored prior to and at 2- to 4-week intervals after LEN administration for at least one year. Following the first dose of LEN in the PK study, one animal in the 50-mg/kg dosing group received 7 consecutive days of daily ketoprofen (2 mg/kg) administered intramuscularly for ISR analgesia at veterinary discretion. For the second dose of LEN in the PK study, all animals in the 50-mg/kg dosing group received 5–7 consecutive days of twice daily oral carprofen (2 mg/kg) analgesia administered prophylactically starting on the day of LEN dosing. In the IV challenge PrEP study, all LEN and vehicle control animals received 3–5 consecutive days of twice daily oral carprofen (2 mg/kg) analgesia administered prophylactically starting on the day of injection. For virus challenge, PrEP study animals each received 1 × 10^5 infectious units of stHIV-A19 injected intravenously. After LEN washout, LEN PrEP group animals received a single 50-mg/kg dose of rhesusized depleting anti-CD8α antibody (MT807R1, RRID: AB_2716320, NIH Nonhuman Primate Reagent Resource), administered SC to anesthetized animals.
Whole blood was collected in EDTA Vacutainer Tubes (BD) from sedated animals. Plasma for vRNA quantification, LEN concentration determination, and HIV-1 Western blot analysis was separated from whole blood and clarified by centrifugation, and then stored at −80 °C. Following plasma separation, the blood cellular component was resuspended in an equivalent volume of PBS and then PBMCs were isolated by Ficoll-Paque Plus (GE Healthcare) gradient centrifugation. Portions of isolated PBMC samples were cryopreserved as dry cell pellets for CA-vDNA quantification.
Pigtail macaque plasma samples stored frozen at −80 °C were thawed, and a 50 μl aliquot of each was treated with 200 μl acetonitrile containing a generic internal small-molecule standard. After precipitation of the protein component, a 150 μl aliquot of the supernatant was transferred to a clean 96-well plate and evaporated to dryness under a nitrogen stream. The samples were reconstituted with 100 μL of 50% acetonitrile and then injected into an API-6500+ QTRAP triple quadrupole mass spectrometer (SciEx) with electrospray ionization in positive mode. […]

[1] = 15 mg/kg SC on Study Day 0 and 42, PTM, N = 3, mean ± SD
[2] = 25 mg/kg single SC dose on Study Day 0, PTM, N = 3, mean ± SD
[3] = 25 mg/kg single SC dose, all three animals
[4] = 50 mg/kg SC on Study Day 0 and 42, PTM, N = 3, mean ± SD

## CC(C)(C#Cc1ccc(-c2ccc(Cl)c3c(NS(C)(=O)=O)nn(CC(F)(F)F)c23)c([C@H](Cc2cc(F)cc(F)c2)NC(=O)Cn2nc(C(F)(F)F)c3c2C(F)(F)[C@@H]2C[C@H]32)n1)S(C)(=O)=O [LEN, Lenacapavir]
15 mg/kg SC on Study Day 0 and 42, PTM
  range of peak plasma LEN concentration after second dose: 57 to 77 nM
[1]
  AUCinf: 80.9 ± 2.5 μM∗h
  AUClast: 80.7 ± 2.5 μM∗h
15 mg/kg SC on Study Day 0 and 42, PTM, N = 3, mean ± SD, read-out: Cmax (mean peak plasma concentration after second dose)
  Cmax: 67.8 ± 10.1 nM
15 mg/kg SC, PTM
  mean peak plasma LEN concentration after first dose: 16 nM
  range of peak plasma LEN concentration after first dose: 10 to 28 nM
  time mean plasma drug concentrations above the PA-EC95: > 189 days
[2]
  AUCinf: 92.0 ± 17.8 μM∗h
  AUClast: 91.3 ± 17.8 μM∗h
25 mg/kg single SC dose, 30 days after dosing, all 3 animals
  plasma LEN concentration at time of stHIV-A19 challenge relative to PA-EC95: > 5 fold
25 mg/kg single SC dose, LEN PrEP animals
  plasma LEN at 419 days post-challenge: no longer detected in plasma
[3]
  time plasma LEN concentrations remaining above the PA-EC95: > 200 days
  time plasma LEN remaining above the lower limit of quantitation (LLOQ, 0.1 nM): more than one year
50 mg/kg SC on Study Day 0 and 42, PTM
  range of peak plasma LEN concentration after second dose: 234 to 350 nM
[4]
  AUCinf: 408 ± 106 μM∗h
  AUClast: 408 ± 106 μM∗h
50 mg/kg SC, PTM
  mean peak plasma LEN concentration after first dose: 95 nM
  range of peak plasma LEN concentration after first dose: 48 to 120 nM
  time mean plasma drug concentrations above the PA-EC95: > 245 days
male, monkey, in vivo, 15 mg/kg, 15 mg/kg SC on Study Day 0 and 42, PTM, N = 3, mean ± SD, read-out: t1/2 (converted)
  half-life: 42.1 ± 28.2 days
male, monkey, in vivo, 15 mg/kg, 15 mg/kg SC, after second dose, PTM, read-out: mean terminal half-life (t1/2) (converted)
  half-life: 42 days
male, monkey, in vivo, 25 mg/kg, 25 mg/kg single SC dose on Study Day 0, PTM, N = 3, mean ± SD, read-out: t1/2 (converted)
  half-life: 38.5 ± 14.2 days
male, monkey, in vivo, 50 mg/kg, 50 mg/kg SC on Study Day 0 and 42, PTM, N = 3, mean ± SD, read-out: t1/2 (converted)
  half-life: 48.3 ± 5.83 days
male, monkey, in vivo, 50 mg/kg, 50 mg/kg SC, after second dose, PTM, read-out: mean terminal half-life (t1/2) (converted)
  half-life: 48 days
male, monkey, plasma, Cmax (mean peak plasma concentration after second dose), 15 mg/kg SC on Study Day 0 and 42, PTM, N = 3, mean ± SD, read-out: Cmax (mean peak plasma concentration after second dose)
  Cmax: 68 nM
male, monkey, plasma, Cmax (mean peak plasma concentration after second dose), 50 mg/kg SC on Study Day 0 and 42, PTM, N = 3, mean ± SD, read-out: Cmax (mean peak plasma concentration after second dose)
  Cmax: 295 ± 58 nM
male, monkey, plasma, Cmax, 25 mg/kg single SC dose on Study Day 0, PTM, N = 3, mean ± SD, read-out: Cmax
  Cmax: 47 ± 5.7 nM
male, pigtail macaque, in vivo, 25 mg/kg, 25 mg/kg single SC dose, PTM, read-out: mean t1/2 (converted)
  half-life: 38.5 days
male, pigtail macaque, in vivo, 25 mg/kg single SC dose, 30 days after dosing, range of 3 animals, read-out: plasma LEN concentrations at the time of stHIV-A19 challenge
  concentration at 30 days: 8.6 to 51.2 nM
